Data as given in patent US11279683B2, “Thiophene derivatives as antiviral agents” (ENYO PHARMA, priority 2016, dated 2022).

tested on: H1N1 (influenza A/New Caledonia/20/99); assay: microbe, parasite or virus in culture; assay type: cell-based; settings: Influenza A virus, H1N1, A549, 48 h

| SMILES | IC50 |
| --- | --- |
| O=C(Nc1ccc(Cl)cc1)c1c(NC(=O)C2CCCC2C(=O)O)sc2c1CCC2 (stereo not drawn) [Compound 46, 2-[[3-[(4-Chlorophenyl)carbamoyl]-5,6-dihydro-4H-cyclopenta[b]thiophen-2-yl]carbamoyl]cyclopentanecarboxylic acid] | 17.4 µM |
| COc1cccc(NC(=O)c2c(NC(=O)C3CCCCC3C(=O)O)sc3c2CCC3)c1 (stereo not drawn) [Compound 64, 2-[[3-[(3-Methoxyphenyl)carbamoyl]-5,6-dihydro-4H-cyclopenta[b]thiophen-2-yl]carbamoyl]cyclohexanecarboxylic acid] | 14.1 µM |
| O=C1CCCC(C(=O)Nc2sc3c(c2C(=O)Nc2ccc(Cl)cc2)CCC3)C1 (stereo not drawn) [Compound 53, N-(4-Chlorophenyl)-2-[(3-oxocyclohexanecarbonyl)amino]-5,6-dihydro-4H-cyclopenta[b]thiophene-3-carboxamide] | 12.8 µM |
| Cc1cc(NC(=O)c2c(NC(=O)C3CCCCC3C(=O)O)sc3c2CCC3)ccc1Cl (stereo not drawn) [Compound 13, 2-[[3-[(4-Chloro-3-methyl-phenyl)carbamoyl]-5,6-dihydro-4H-cyclopenta[b]thiophen-2-yl]carbamoyl]cyclohexanecarboxylic acid] | 4.68 µM |
| O=C(NCc1ccc(Cl)cc1)c1c(NC(=O)C2CCCCC2C(=O)O)sc2c1CCC2 (stereo not drawn) [Compound 5, 2-[[3-[(4-Chlorophenyl)methylcarbamoyl]-5,6-dihydro-4H-cyclopenta[b]thiophen-2-yl]carbamoyl]cyclohexanecarboxylic acid] | 10.7 µM |
| O=C(Nc1ccc(F)cc1)c1c(NC(=O)C2CCCCC2C(=O)O)sc2c1CCC2 (stereo not drawn) [Compound 4, 2-[[3-[(4-Fluorophenyl)carbamoyl]-5,6-dihydro-4H-cyclopenta[b]thiophen-2-yl]carbamoyl]cyclohexanecarboxylic acid] | 15 µM |
| O=C(Nc1ccc(C(F)(F)F)nc1)c1c(NC(=O)C2CCCCC2C(=O)O)sc2c1CCC2 (stereo not drawn) [Compound 32, 2-[[3-[[6-(Trifluoromethyl)-3-pyridyl]carbamoyl]-5,6-dihydro-4H-cyclopenta[b]thiophen-2-yl]carbamoyl]cyclohexanecarboxylic acid] | 22 µM |
| O=C(Nc1ccc(Cl)nc1)c1c(NC(=O)C2CCCCC2C(=O)O)sc2c1CCC2 (stereo not drawn) [Compound 2, 2-[[3-[(6-Chloro-3-pyridyl)carbamoyl]-5,6-dihydro-4H-cyclopenta[b]thiophen-2-yl]carbamoyl]cyclohexanecarboxylic acid] | 18 µM |
| Cc1cc(Cl)ccc1NC(=O)c1c(NC(=O)C2CCCCC2C(=O)O)sc2c1CCC2 (stereo not drawn) [Compound 7, 2-[[3-[(4-Chloro-2-methyl-phenyl)carbamoyl]-5,6-dihydro-4H-cyclopenta[b]thiophen-2-yl]carbamoyl]cyclohexanecarboxylic acid] | 10.1 µM |
| O=C(Nc1ccc(C(F)(F)F)cc1)c1c(NC(=O)C2CCCCC2C(=O)O)sc2c1CCC2 (stereo not drawn) [Compound 27, 2-[[3-[[4-(Trifluoromethyl)phenyl]carbamoyl]-5,6-dihydro-4H-cyclopenta[b]thiophen-2-yl]carbamoyl]cyclohexanecarboxylic acid] | 18.1 µM |
| O=C(Nc1ccc(Cl)c(C(F)(F)F)c1)c1c(NC(=O)C2CCCCC2C(=O)O)sc2c1CCC2 (stereo not drawn) [Compound 6, 2-[[3-[[4-Chloro-3-(trifluoromethyl)phenyl]carbamoyl]-5,6-dihydro-4H-cyclopenta[b]thiophen-2-yl]carbamoyl]cyclohexanecarboxylic acid] | 4.68 µM |
| O=C(Nc1ccc(Cl)cc1)c1c(NC(=O)C2CCCCC2C(=O)O)sc2c1CCOC2 (stereo not drawn) [Compound 37, 2-[[3-[(4-Chlorophenyl)carbamoyl]-5,7-dihydro-4H-thieno[2,3-c]pyran-2-yl]carbamoyl]cyclohexanecarboxylic acid] | 43.4 µM |
| Cc1cncc(NC(=O)c2c(NC(=O)C3CCCCC3C(=O)O)sc3c2CCC3)c1 (stereo not drawn) [Compound 33, 2-[[3-[(5-Methyl-3-pyridyl)carbamoyl]-5,6-dihydro-4H-cyclopenta[b]thiophen-2-yl]carbamoyl]cyclohexanecarboxylic acid] | 27.4 µM |
| CC(C)c1ccc(NC(=O)c2c(NC(=O)C3CCCCC3C(=O)O)sc3c2CCC3)cc1 (stereo not drawn) [Compound 25, 2-[[3-[(4-Isopropylphenyl)carbamoyl]-5,6-dihydro-4H-cyclopenta[b]thiophen-2-yl]carbamoyl]cyclohexanecarboxylic acid] | 4.68 µM |
| NC(=O)C1CCCCC1C(=O)Nc1sc2c(c1C(=O)Nc1ccc(Cl)cc1)CCC2 (stereo not drawn) [Compound 55, N2-[3-[(4-Chlorophenyl)carbamoyl]-5,6-dihydro-4H-cyclopenta[b]thiophen-2-yl]cyclohexane-1,2-dicarboxamide] | 27 µM |
| O=C(NC1CCCCC1)c1c(NC(=O)C2CCCCC2C(=O)O)sc2c1CCC2 (stereo not drawn) [Compound 65, 2-[[3-(Cyclohexylcarbamoyl)-5,6-dihydro-4H-cyclopenta[b]thiophen-2-yl]carbamoyl]cyclohexanecarboxylic acid] | 17.7 µM |
| O=C(O)C1CCCCC1C(=O)Nc1sc2c(c1C(=O)N1CCN(c3ccc(Cl)cc3)CC1)CCC2 (stereo not drawn) [Compound 36, 2-[[3-[4-(4-chlorophenyl)piperazine-1-carbonyl]-5,6-dihydro-4H-cyclopenta[b]thiophen-2-yl]carbamoyl]cyclohexanecarboxylic acid] | 21 µM |
| O=C(Nc1ccc(F)c(F)c1)c1c(NC(=O)C2CCCCC2C(=O)O)sc2c1CCC2 (stereo not drawn) [Compound 16, 2-[[3-[(3,4-Difluorophenyl)carbamoyl]-5,6-dihydro-4H-cyclopenta[b]thiophen-2-yl]carbamoyl]cyclohexanecarboxylic acid] | 10.4 µM |
| O=C(NCC1CCCCC1)c1c(NC(=O)C2CCCCC2C(=O)O)sc2c1CCC2 (stereo not drawn) [Compound 24, 2-[[3-(Cyclohexylmethylcarbamoyl)-5,6-dihydro-4H-cyclopenta[b]thiophen-2-yl]carbamoyl]cyclohexanecarboxylic acid] | 12.3 µM |
| O=C(Nc1ccc(CCO)cc1)c1c(NC(=O)C2CCCCC2C(=O)O)sc2c1CCC2 (stereo not drawn) [Compound 9, 2-[[3-[[4-(2-Hydroxyethyl)phenyl]carbamoyl]-5,6-dihydro-4H-cyclopenta[b]thiophen-2-yl]carbamoyl]cyclohexanecarboxylic acid] | 21.1 µM |
| O=C(Nc1ncc(Cl)s1)c1c(NC(=O)C2CCCCC2C(=O)O)sc2c1CCC2 (stereo not drawn) [Compound 29, 2-[[3-[(5-Chlorothiazol-2-yl)carbamoyl]-5,6-dihydro-4H-cyclopenta[b]thiophen-2-yl]carbamoyl]cyclohexanecarboxylic acid] | 6.78 µM |
| CN(C(=O)c1c(NC(=O)C2CCCCC2C(=O)O)sc2c1CCC2)c1ccc(Cl)cc1 (stereo not drawn) [Compound 34, 2-[[3-[(4-Chlorophenyl)-methyl-carbamoyl]-5,6-dihydro-4H-cyclopenta[b]thiophen-2-yl]carbamoyl]cyclohexanecarboxylic acid] | 30.4 µM |
| O=C(Nc1cccc(Cl)c1)c1c(NC(=O)C2CCCCC2C(=O)O)sc2c1CCC2 (stereo not drawn) [Compound 17, 2-[[3-[(3-Chlorophenyl)carbamoyl]-5,6-dihydro-4H-cyclopenta[b]thiophen-2-yl]carbamoyl]cyclohexanecarboxylic acid] | 4.88 µM |
| CC(C)(CC(=O)O)CC(=O)Nc1sc2c(c1C(=O)Nc1ccc(Cl)cc1)CCC2 [Compound 47, 5-[[3-[(4-Chlorophenyl)carbamoyl]-5,6-dihydro-4H-cyclopenta[b]thiophen-2-yl]amino]-3,3-dimethyl-5-oxo-pentanoic acid] | 22.7 µM |
